In patent US20260295059A1, “BROAD-SPECTRUM ANTIBIOTIC HYBRIDS FOR THE TREATMENT OF MULTI-DRUG RESISTANT INFECTIONS” (priority 2023, published 2026):
Where a SMILES comes first, the peptide text is derived from it. Bridges are numbered along the chain shown (N, C = ends). [ ]: non-standard residue; d: D form. The star is where a group is joined. ξ: configuration not given here. Decanoyl(3R-OH) = CCCCCCC[C@@H](O)CC(=O)*; Decanoyl = CCCCCCCCCC(=O)*; dDab = NCC[C@@H](N)C(=O)O; Dab = NCC[C@H](N)C(=O)O; ξDab = NCCC(N)C(=O)O

Legend:
Gram-negative bacteria = assay: Antibacterial activity against Gram-negative bacteria; assay type: cell-based
Source text: (§1) Polymyxin lipopeptides can act as powerful potentiators for FDA-approved non-antibiotic drugs, by permeabilizing the Gram-negative outer membrane, allowing the non-antibiotic drug to enter the bacterial cell and reach its intracellular targets (Hussein et al. (2018) Comput. Struct. Biotechnol. J. 16:587-599; Hussein et al. (2017) Microbiol. Drug Resist. 23:640-650; Jasim et al. (2017) J. Biomed. Nanotechnol. 13:447-457; Schneider et al. (2016) ACS Infect. Dis. 2:478-488; Tran et al. (2018) Front. Pharmacol. 9:359; Tran et al. (2018) Front. Microbiol. 9:721; Schneider et al. (2017) Essays Biochem. 61:115-125; Diep et al. (2017) Antimicrob. Agents Chemother. 61; Rao et al. (2016) J. Antimicrob. Chemother. 71:3148-3156; Sharma et al. (2017) Int. J. Antimicrob. Agents 49:224-232).

Gram-positive bacteria = assay: Antibacterial activity against Gram-positive bacteria; assay type: cell-based
Source text: as §1

P. aeruginosa [1] = assay: Activity against challenge panel of 207 P. aeruginosa isolates (MIC50/MIC90); assay type: cell-based; conditions: Pseudomonas aeruginosa
Procedure: (§2) Dry Powder Formulation and in vivo Efficacy of UOM-001 and UOM-005 in a Lung Infection Model. […] The activity of DPI UOM-001 and comparator antibiotics was assessed against a challenge panel consisting of 207 P. aeruginosa isolates collected from different parts of the world; 105 isolates were enriched for resistance against β-lactam/β-lactamase inhibitor combinations (Table 6). […] The teixobactin-lipopeptide hybrids have a labile linker between the two antibiotic components that allows for sustained release of each component at the infection site simultaneously, thereby targeting their synergistic activity. Whereas the individual components when administered together likely display different disposition, uptake, and elimination characteristics, and therefore become diffusely distributed from each other, resulting in the loss of antibacterial synergy. […] In contrast, following intravenous administration of an identical dose, the ELF concentration of UOM-001 was below the limit of quantification (0.1 μg/mL). […] Pulmonary surfactant is a primary component of the ELF which can bind antibiotics that can impede the antibacterial activity of the drug. The binding of UOM-001 and teixobactin (5 mg/L for 4 h 37° C.) to lung surfactant or its individual components was determined by ultracentrifugation and LC-MS (FIG. 5C). The low binding of UOM-001 to lung surfactant is consistent with its good efficacy in the lung infection model. The effect of surfactant on the in vitro antibacterial activity of UOM-001 was assessed with the use of three polymyxin-resistant P. aeruginosa cystic fibrosis isolates. Beractant (Survanta™; Abbott Laboratories) served as the pulmonary surfactant. Beractant is a bovine-derived surfactant containing 25 mg/mL phospholipids. Although its composition differs slightly from that of human surfactant, it is functionally equivalent. For surfactant testing, the bacterial growth medium was supplemented with 10% beractant (=2.5 mg/mL). Since the surfactant produces turbidity, the minimum bactericidal concentration (MBC) was used to compare potency of UOM-001 in the absence or presence of surfactant. The MBCs of UOM-001 (0.125-0.5 mg/L) were not affected even when tested with the highest concentrations of surfactant (2.5 mg/mL, 10%).

PDR P. aeruginosa = assay: as above; assay type: cell-based; conditions: P. aeruginosa (n = 207)
Procedure: as §2

[2] = system: P. aeruginosa FADDI-PA021m; assay: MIC against polymyxin-resistant cystic fibrosis isolate FADDI-PA021m; assay type: cell-based
[3] = system: P. aeruginosa FADDI-PA021m; assay: Static time-kill study, FADDI-PA021m; assay type: cell-based; conditions: native teixobactin or polymyxin B (MICs >128 mg/L)
P. aeruginosa [4] = assay: MIC determination, P. aeruginosa strains; assay type: cell-based; conditions: 11 PDR P. aeruginosa strains
Source text: (§3) Agents Chemother. 61; Rao et al. (2016) J. Antimicrob. Chemother. 71:3148-3156; Sharma et al. (2017) Int. J. Antimicrob. Agents 49:224-232). Subsequently, this SAR-based design strategy has been expanded to include teixobactins conjugated via labile and non-labile linkers to the polymyxin-lipopeptides (e.g., polymyxin B nonapeptide, FADDI-002 and octapeptin C4) (Velkov et al. (2018) Cell Chem. Biol. 25:380-391 e385; Velkov et al. (2013) Future Microbiol. 8:711-724; Velkov et al. (2014) ACS Chem. Biol. 9:1172-1177; Velkov et al. (2010) J. Med. Chem 53:1898-1916), which generated potent teixobactin lipopeptide hybrids active against teixobactin-resistant PDR Gram-negative ‘superbugs’ (Table 4).

A. baumannii = assay: MIC determination, A. baumannii strains; assay type: cell-based; conditions: 4 PDR A. baumannii strains
Source text: as §3

S. aureus = assay: MIC determination, S. aureus strains; assay type: cell-based; conditions: 3 PDR S. aureus strains
Source text: as §3

pulmonary infections = conditions: 230 critically-ill patients, cited from earlier work

Compound	MIC50 (P. aeruginosa [1]) [µg/mL]	MIC90 (P. aeruginosa [1]) [µg/mL]	MIC50 (PDR P. aeruginosa) [mg/L]	MIC90 (PDR P. aeruginosa) [mg/L]	other results
CCCCCCCCCC(=O)N[C@H](CCN)C(=O)N[C@H]1CCNC(=O)[C@H](CC(C)C)NC(=O)[C@H](CCN)NC(=O)[C@H](CCN)NC(=O)[C@H](CC(C)C)NC(=O)[C@@H](Cc2ccccc2)NC(=O)[C@H](CCN)NC1=O [FADDI-115] (Decanoyl-[dDab][Dab][Dab][dF]L[Dab][Dab]L; lactam 2-C)					activity against Gram-negative bacteria (Gram-negative bacteria): potent activity; activity against Gram-positive bacteria (Gram-positive bacteria): potent activity
NCC[C@H](O)C(=O)N[C@@H]1C[C@H](N)[C@@H](O[C@H]2O[C@H](CN)[C@@H](O)[C@H](O)[C@H]2O)[C@H](O)[C@H]1O[C@H]1O[C@H](CO)[C@@H](O)[C@H](N)[C@H]1O [AMK, amikacin]	16	> 32			
C[C@@H](O)[C@H]1C(=O)N2C(C(=O)O)=C(S[C@@H]3CN[C@H](C(=O)N(C)C)C3)[C@H](C)[C@H]12 [MER, meropenem]	16	> 32			
C[C@H]1COc2c(N3CCN(C)CC3)c(F)cc3c(=O)c(C(=O)O)cn1c23 [LEVO, levofloxacin]	8	> 16			
CCCCCCC[C@@H](O)CC(=O)N[C@H](CCN)C(=O)NC1CCNC(=O)[C@H](CC(C)C)NC(=O)[C@H](CCN)NC(=O)[C@H](CCN)NC(=O)[C@H](CC(C)C)NC(=O)[C@@H](Cc2ccccc2)NC(=O)[C@H](CCN)NC1=O (stereo partly drawn) [octapeptin C4] ({Decanoyl(3R-OH)}-[dDab][ξDab][Dab][dF]L[Dab][Dab]L; lactam 2-C)					activity against Gram-negative bacteria (Gram-negative bacteria): potent activity; activity against Gram-positive bacteria (Gram-positive bacteria): potent activity
gentamicin [GNT]			8	>16	
piperacillin-tazobactam [PIP-TAZ]			64	>128	
polymyxin B					MIC [2]: > 128 mg/L; killing [3]: no killing was observed
colistin			1	1	colistin MIC (PDR strains) (P. aeruginosa [4]): 8 to 128 mg/L; colistin MIC (PDR strains) (A. baumannii): 8 to 128 mg/L; colistin MIC (PDR strains) (S. aureus): >128 mg/L; efficacy of parenteral colistin for pulmonary infections (pulmonary infections): disappointing; exposure of colistin at the infection site (pulmonary infections; parenteral, pulmonary infections): very limited exposure at the infection site
ceftazidime-avibactam [CAZ-AVI]			2	8	
